#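 Cells were grown in 96-well plates and exposed to each compound for 48 hours at five concentrations; endpoints were interpolated linearly between bracketing concentrations, or set to the highest concentration if not reached. GI50 = concentration required for 50% inhibition of growth. The concentration for full growth arrest is given as TGI.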
# Assays:
# Test in all cases: growth of human tumour cells (NCI), 48 h
# [1] = system: HCC-2998 colon
# [2] = system: SNB-19 CNS
# [3] = system: OVCAR-8 ovarian
# [4] = system: HOP-92 NSCLC
# [5] = system: UO-31 renal
# [6] = system: NCI-H522 lung
# [7] = system: RXF 393 renal
# [8] = system: SK-MEL-5 melanoma
# [9] = system: U251 CNS
# [10] = system: UACC-62 melanoma
# [11] = system: NCI/ADR-RES ovarian
# [12] = system: SK-OV-3 ovarian
# [13] = system: K-562 leukemia
# [14] = system: HCT-116 colon
# [15] = system: MDA-MB-435
# [16] = system: RPMI-8226 leukemia
# [17] = system: SF-268 CNS
# [18] = system: SF-539 CNS
# [19] = system: MOLT-4 leukemia
# [20] = system: EKVX NSCLC
# [21] = system: CCRF-CEM leukemia
# [22] = system: M14 melanoma
# [23] = system: HCT-15 colon
# [24] = system: DU-145 prostate
# [25] = system: SK-MEL-28 melanoma
# [26] = system: OVCAR-3 ovarian
# [27] = system: BT-549 breast
# [28] = system: SK-MEL-2 melanoma
# [29] = system: CAKI-1 renal
# [30] = system: PC-3 prostate
# [31] = system: 786-0 renal
# [32] = system: HS 578T breast
# [33] = system: SN12C renal
# [34] = system: COLO 205 colon
# [35] = system: A549 NSCLC
# [36] = system: NCI-H23 lung
# [37] = system: OVCAR-4 ovarian
# [38] = system: SF-295 CNS
# [39] = system: HOP-62 NSCLC
# [40] = system: KM12 colon
# [41] = system: UACC-257 melanoma
# [42] = system: OVCAR-5 ovarian
# [43] = system: MCF7 breast
# [44] = system: IGROV1 ovarian
# [45] = system: ACHN renal
# [46] = system: MDA-MB-231 breast
# [47] = system: NCI-H460 lung
# [48] = system: SR leukemia
# [49] = system: SW-620 colon
# [50] = system: MDA-N
# [51] = system: HT29 colon
# [52] = system: LOX IMVI melanoma
# [53] = system: MALME-3M melanoma
# [54] = system: SNB-75 CNS
# [55] = system: HL-60(TB) leukemia
# [56] = system: TK-10 renal
# [57] = system: A498 renal
# [58] = system: T-47D breast
# [59] = system: NCI-H226 lung
smiles,measurement,setting,value
CC(C)(C)c1ccccc1N1C(=O)c2ccc3c4c(ccc(c24)C1=O)N(c1ccccc1C(C)(C)C)C3=O,TGI,[1],> 100 µM
same,TGI,[2],> 100 µM
same,TGI,[3],> 100 µM
same,TGI,[4],> 100 µM
same,TGI,[5],> 100 µM
same,TGI,[6],> 100 µM
same,TGI,[7],> 100 µM
same,TGI,[8],> 100 µM
same,TGI,[9],> 100 µM
same,TGI,[10],> 100 µM
same,TGI,[11],> 100 µM
same,TGI,[12],> 100 µM
same,TGI,[13],> 100 µM
same,TGI,[14],> 100 µM
same,TGI,[15],> 100 µM
same,TGI,[16],> 100 µM
same,TGI,[17],> 100 µM
same,TGI,[18],> 100 µM
same,TGI,[19],> 100 µM
same,TGI,[20],> 100 µM
same,TGI,[21],> 100 µM
same,TGI,[22],> 100 µM
same,TGI,[23],> 100 µM
same,TGI,[24],> 100 µM
same,TGI,[25],> 100 µM
same,TGI,[26],> 100 µM
same,TGI,[27],> 100 µM
same,TGI,[28],> 100 µM
same,TGI,[29],> 100 µM
same,TGI,[30],> 100 µM
same,TGI,[31],> 100 µM
same,TGI,[32],> 100 µM
same,TGI,[33],> 100 µM
same,TGI,[34],> 100 µM
same,TGI,[35],> 100 µM
same,TGI,[36],> 100 µM
same,TGI,[37],> 100 µM
same,TGI,[38],> 100 µM
same,TGI,[39],> 100 µM
same,TGI,[40],> 100 µM
same,TGI,[41],> 100 µM
same,TGI,[42],> 100 µM
same,TGI,[43],> 100 µM
same,TGI,[44],> 100 µM
same,TGI,[45],> 100 µM
same,TGI,[46],> 100 µM
same,TGI,[47],> 100 µM
same,TGI,[48],> 100 µM
same,TGI,[49],> 100 µM
same,TGI,[50],> 100 µM
same,TGI,[51],> 100 µM
Nc1nc2ccc(-c3nc4ccc5[nH]ncc5c4c4c3CCC4)cc2s1,GI50,[1],1.47 µM
same,TGI,[1],9.11 µM
same,GI50,[2],0.318 µM
same,TGI,[2],11.4 µM
same,GI50,[3],0.978 µM
same,TGI,[3],20.7 µM
same,GI50,[4],0.66 µM
same,TGI,[4],6.87 µM
same,GI50,[5],0.741 µM
same,TGI,[5],3.58 µM
same,GI50,[6],0.253 µM
same,TGI,[6],2.52 µM
same,GI50,[7],0.238 µM
same,TGI,[7],1.77 µM
same,GI50,[52],0.281 µM
same,TGI,[52],8.9 µM
same,GI50,[8],0.238 µM
same,TGI,[8],1.68 µM
same,GI50,[9],0.241 µM
same,TGI,[9],12.7 µM
same,GI50,[10],0.149 µM
same,TGI,[10],0.63 µM
same,GI50,[11],0.302 µM
same,TGI,[11],18.8 µM
same,GI50,[12],0.473 µM
same,TGI,[12],2.52 µM
same,GI50,[13],0.115 µM
same,TGI,[13],33.2 µM
same,GI50,[14],0.244 µM
same,TGI,[14],6.68 µM
same,GI50,[15],0.0673 µM
same,TGI,[15],0.259 µM
same,GI50,[16],0.472 µM
same,TGI,[16],10.5 µM
same,GI50,[53],0.202 µM
same,TGI,[53],1.63 µM
same,GI50,[17],0.478 µM
same,TGI,[17],20.2 µM
same,GI50,[18],0.19 µM
same,TGI,[18],4.15 µM
same,GI50,[19],0.294 µM
same,TGI,[19],10.7 µM
same,GI50,[20],0.916 µM
same,TGI,[20],8.05 µM
same,GI50,[21],0.225 µM
same,TGI,[21],50 µM
same,GI50,[22],0.172 µM
same,TGI,[22],8.86 µM
same,GI50,[23],0.193 µM
same,TGI,[23],7.66 µM
same,GI50,[24],0.787 µM
same,TGI,[24],5.62 µM
same,GI50,[25],0.638 µM
same,TGI,[25],7.89 µM
same,GI50,[54],0.115 µM
same,TGI,[54],0.55 µM
same,GI50,[55],0.168 µM
same,TGI,[55],7.93 µM
same,GI50,[26],0.187 µM
same,TGI,[26],10.8 µM
same,GI50,[27],0.365 µM
same,TGI,[27],10.2 µM
same,GI50,[56],1.11 µM
same,TGI,[56],9.73 µM
same,GI50,[28],0.567 µM
same,TGI,[28],8.08 µM
same,GI50,[29],0.315 µM
same,TGI,[29],5.51 µM
same,GI50,[30],0.308 µM
same,TGI,[30],14 µM
same,GI50,[31],0.343 µM
same,TGI,[31],7.79 µM
same,GI50,[32],0.189 µM
same,TGI,[32],3.13 µM
same,GI50,[33],0.383 µM
same,TGI,[33],8.79 µM
same,GI50,[34],0.306 µM
same,TGI,[34],7.14 µM
same,GI50,[35],0.44 µM
same,TGI,[35],23.9 µM
same,GI50,[36],0.546 µM
same,TGI,[36],8.25 µM
same,GI50,[37],0.835 µM
same,TGI,[37],6.25 µM
same,GI50,[38],0.234 µM
same,TGI,[38],7.95 µM
same,GI50,[39],0.415 µM
same,TGI,[39],13.6 µM
same,GI50,[40],0.205 µM
same,TGI,[40],9.01 µM
same,GI50,[41],0.731 µM
same,TGI,[41],5.58 µM
same,GI50,[57],0.108 µM
same,TGI,[57],0.624 µM
same,GI50,[42],2.64 µM
same,TGI,[42],11.9 µM
same,GI50,[58],0.408 µM
same,TGI,[58],15.3 µM
same,GI50,[43],0.165 µM
same,TGI,[43],7.36 µM
same,GI50,[44],0.288 µM
same,TGI,[44],8.66 µM
same,GI50,[45],0.321 µM
same,TGI,[45],6.58 µM
same,GI50,[59],1.1 µM
same,TGI,[59],10.1 µM
same,GI50,[46],0.511 µM
same,TGI,[46],11.5 µM
same,GI50,[47],0.208 µM
same,TGI,[47],5.12 µM
same,GI50,[48],0.155 µM
same,TGI,[48],22.4 µM
same,GI50,[49],0.186 µM
same,TGI,[49],7.05 µM
same,GI50,[51],0.191 µM
same,TGI,[51],19.8 µM
